US20150344444A1, “BET-PROTEIN-INHIBITING DIHYDROXYQUINOXALINONES” (BAYER PHARMA AKTIENGESELLSCHAFT, priority 2012, published 2015)

What was measured:
[1] = test system: MOLP-8 cells; test: MOLP-8 cell proliferation assay (alamarBlue); format: cell-based; settings: inhibition of cell proliferation, 120 hours, human multiple myeloma cell line
Method in brief: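 MOLP-8 myeloma cells in RPMI1640/20% FCS were treated with compound from 1E-5 to 1E-8 M for 120 h at 37 °C. Proliferation was measured by alamarBlue fluorescence (ex 530, em 590 nm), and the reading taken before dosing was subtracted. IC50 is relative to buffer-treated cells.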

[2] = biological target: T1, BRD4 Bromo Domain 1 [BRD4(1)] (Homo sapiens, UniProt O60885); test: BRD4(1)/acetylated peptide H4 binding assay (TR-FRET); settings: inhibition of interaction between His6-tagged BRD4(1) (amino acids 67-152) and acetylated histone H4 peptide
T1 construct: N-terminally His6-tagged BRD4(1) (amino acids 67-152); made in house; host or cells: E. coli
Method in brief: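 His6-BRD4(1) (aa 67-152, E. coli), 10 nM final, with biotinylated tetra-acetylated H4 peptide in HEPES pH 7.5 buffer; 11 compound concentrations 0.1 nM-20 μM in duplicate, 10 min preincubation, then 1 h at 22 °C and ≥3 h at 4 °C. TR-FRET 665/620 ratio; IC50 by 4-parameter fit.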

[3] = test system: MOLM-13 cells; test: MOLM-13 cell proliferation assay (alamarBlue); format: cell-based; settings: inhibition of cell proliferation, 96 hours, human AML cell line
Method in brief: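 MOLM-13 AML cells (4000/well, RPMI1640 + 10% FCS) treated 96 h at 37 °C with 1E-5 to 1E-8 M compound. Proliferation by alamarBlue fluorescence (ex 530/em 590), pre-treatment reading subtracted; IC50 versus buffer-treated cells.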

Row | SMILES | IC50 [1] [nM] | IC50 [2] [nM] | IC50 [3] [nM]
1 | COc1cc(C(=O)NC2CCN(C)CC2)ccc1Nc1ccc2c(c1)N(C1CCOCC1)[C@H](C)C(=O)N2C [Example 36, 4-{[(3R)-1,3-dimethyl-2-oxo-4-(tetrahydro-2H-pyran-4-yl)-1,2,3,4-tetrahydroquinoxalin-6-yl]amino}-3-methoxy-N-(1-methylpiperidin-4-yl)benzamide] | 675 | 482 | 1080
2 | COc1cc(C(=O)NC2CCC(N3CCN(CC4CC4)CC3)CC2)ccc1Nc1ccc2c(c1)N(C1CCOCC1)[C@H](C)C(=O)N2C (stereo partly drawn) [Example 37, N-{4-[4-(cyclopropylmethyl)piperazin-1-yl]cyclohexyl}-4-{[(3R)-1,3-dimethyl-2-oxo-4-(tetrahydro-2H-pyran-4-yl)-1,2,3,4-tetrahydroquinoxalin-6-yl]amino}-3-methoxybenzamide] | 479 | 422 | 1080
3 | COc1cc(C(=O)N2CCN(C)CC2)ccc1Nc1ccc2c(c1)N(C1CCOCC1)[C@H](C)C(=O)N2C [Example 38, (3R)-6-({2-methoxy-4-[(4-methylpiperazin-1-yl)carbonyl]phenyl}amino)-1,3-dimethyl-4-(tetrahydro-2H-pyran-4-yl)-3,4-dihydroquinoxalin-2(1H)-one] | 758 | 272 | 1790
4 | COc1ccc(CN2c3cc(Nc4ccc(S(=O)(=O)N(C)C)cc4)ccc3N(C)C(=O)[C@H]2C)cc1 [Example 41, 4-{[(3R)-4-(4-methoxybenzyl)-1,3-dimethyl-2-oxo-1,2,3,4-tetrahydroquinoxalin-6-yl]amino}-N,N-dimethylbenzenesulphonamide] | 77 | 183 | 145
5 | COc1ccc(CN2c3cc(Nc4ccc(S(=O)(=O)N5CCOCC5)cc4)ccc3N(C)C(=O)[C@H]2C)cc1 [Example 42, (3R)-4-(4-methoxybenzyl)-1,3-dimethyl-6-{[4-(morpholin-4-ylsulphonyl)phenyl]amino}-3,4-dihydroquinoxalin-2(1H)-one] | 61 | 120 | 149
6 | COc1ccc(CN2c3cc(Nc4ccc(S(=O)(=O)N5CCN(C)CC5)cc4)ccc3N(C)C(=O)[C@H]2C)cc1 [Example 43, (3R)-4-(4-methoxybenzyl)-1,3-dimethyl-6-({4-[(4-methylpiperazin-1-yl)sulphonyl]phenyl}amino)-3,4-dihydroquinoxalin-2(1H)-one] | 35 | 103 | 145
7 | COc1ccc(CN2c3cc(Nc4ccc(S(=O)(=O)N5CCN(C(C)C)CC5)cc4)ccc3N(C)C(=O)[C@H]2C)cc1 [Example 44, (3R)-4-(4-methoxybenzyl)-1,3-dimethyl-6-[(4-{[4-(propan-2-yl)piperazin-1-yl]sulphonyl}phenyl)amino]-3,4-dihydroquinoxalin-2(1H)-one] | 101 | 55 | 340
8 | C[C@@H]1C(=O)N(C)c2ccc(Nc3ccc(S(=O)(=O)N(C)C)cc3)cc2N1C1CCCCCC1 [Example 45, 4-{[(3R)-4-cycloheptyl-1,3-dimethyl-2-oxo-1,2,3,4-tetrahydroquinoxalin-6-yl]amino}-N,N-dimethylbenzenesulphonamide] | 1100 | 264 | 1340
9 | C[C@@H]1C(=O)N(C)c2ccc(Nc3ccc(S(=O)(=O)N(C)C)cc3)cc2N1C1CCOCC1 [Example 46, 4-{[(3R)-1,3-dimethyl-2-oxo-4-(tetrahydro-2H-pyran-4-yl)-1,2,3,4-tetrahydroquinoxalin-6-yl]amino}-N,N-dimethylbenzenesulphonamide] | 365 | 145 | 719
10 | C[C@@H]1C(=O)N(C)c2ccc(Nc3ccc(S(=O)(=O)N4CCOCC4)cc3)cc2N1C1CCOCC1 [Example 47, (3R)-1,3-dimethyl-6-{[4-(morpholin-4-ylsulphonyl)phenyl]amino}-4-(tetrahydro-2H-pyran-4-yl)-3,4-dihydroquinoxalin-2(1H)-one] | 496 | 95 | 407
11 | C[C@@H]1C(=O)N(C)c2ccc(Nc3ccc(S(=O)(=O)N4CCN(C)CC4)cc3)cc2N1C1CCOCC1 [Example 48, (3R)-1,3-dimethyl-6-({4-[(4-methylpiperazin-1-yl)sulphonyl]phenyl}amino)-4-(tetrahydro-2H-pyran-4-yl)-3,4-dihydroquinoxalin-2(1H)-one] | 803 | 237 | 1250
